Test system: cancer cell line (MDA-MB-231) for triple-negative breast cancer
Test: Cancer Cell Killing Effect Assay 5 (XTT assay)
Format: cell-based
Details: MDA-MB-231, 24 hours, 37° C., 5% CO2; 3.750 and 7.500 μM; FIG. 6
Experimental: Cancer Cell Line: Cancer Cell Line (MDA-MB-231) (the G0 Phase) for Triple-Negative Breast Cancer XTT cell proliferation assay kit (manufactured by ATCC) The XTT labeled liquid mixture was adjusted by mixing the XTT reagent (5 ml) and an activation solution (0.1 ml). The cell proliferation assay was conducted in accordance with ATCC's experiment protocol. […] The cancer cell line for the triple-negative breast cancer was cultured by the same method as that of Example 4. RPMI-1640, 10% inactivated bovine serum (GIBCO, USA), and 100 units/ml of penicillin-streptomycin were added to each well (100 μl) of the microplate (for cell proliferation and with 96 holes and a flat bottom) and 3×10^5 cultured cells were seeded. […] The XTT assay was performed by the same method as that of Example 4. The cell survival rate was calculated on the basis of the results of the absorbance measurement and by the method explained in [Cancer Cell Killing Effect Assay 3].

CC(=O)O[C@H]1C(=O)[C@@]2(C)[C@H]([C@H](OC(=O)c3ccccc3)[C@]3(O)C[C@H](OC(=O)[C@H](O)[C@@H](NC(=O)c4ccccc4)c4ccccc4)C(C)=C1C3(C)C)[C@]1(OC(C)=O)CO[C@@H]1C[C@@H]2O [paclitaxel]
concentration dependence of reduction of cell survival rate / cell killing effect: concentration-dependent up to a specified concentration
